target: Proto-oncogene tyrosine-protein kinase Src (Mus musculus, UniProt P05480); assay: Kinase Assay
Method: 2,6,9-Trisubstituted purines were evaluated for their src kinase inhibitory activities using an ELISA assay.

Chain of Proto-oncogene tyrosine-protein kinase Src (P05480 2-535 limits assumed): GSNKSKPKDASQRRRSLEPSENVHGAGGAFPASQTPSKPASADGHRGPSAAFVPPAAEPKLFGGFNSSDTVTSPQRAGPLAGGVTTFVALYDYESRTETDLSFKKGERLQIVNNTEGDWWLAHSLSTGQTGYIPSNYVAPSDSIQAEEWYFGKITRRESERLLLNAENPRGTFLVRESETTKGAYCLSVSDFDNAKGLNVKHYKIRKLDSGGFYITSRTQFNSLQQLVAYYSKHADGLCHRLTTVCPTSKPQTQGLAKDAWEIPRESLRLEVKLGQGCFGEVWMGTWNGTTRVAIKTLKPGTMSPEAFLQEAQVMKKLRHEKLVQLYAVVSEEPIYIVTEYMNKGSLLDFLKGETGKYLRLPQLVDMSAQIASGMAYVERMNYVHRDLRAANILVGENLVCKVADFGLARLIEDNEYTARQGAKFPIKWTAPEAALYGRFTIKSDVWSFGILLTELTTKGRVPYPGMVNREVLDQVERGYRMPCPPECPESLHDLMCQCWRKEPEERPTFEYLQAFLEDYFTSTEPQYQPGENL

SMILES | IC50 [nM]
CCn1cnc2c(Nc3ccc(P(=O)(O)CP(=O)(O)O)cc3)nc(C[C@H]3CC[C@@H](N)CC3)nc21 [2,6,9-Trisubstituted Purine, 10] | 101
CCn1cnc2c(Nc3ccc(P(=O)(O)CP(=O)(O)O)cc3)nc(CCCCN)nc21 [2,6,9-Trisubstituted Purine, 11] | 2110
CCn1cnc2c(Nc3ccccc3)nc([C@H]3CC[C@H](N)CC3)nc21 [2,6,9-Trisubstituted Purine, AP23517] | 73
CCn1cnc2c(Nc3ccc(P(=O)(O)CP(=O)(O)O)cc3)nc(CC3CCCNC3)nc21 (stereo not drawn) [2,6,9-Trisubstituted Purine, 7] | 2300
CCn1cnc2c(Nc3ccc(P(=O)(O)CP(=O)(O)O)cc3)nc(CCC3CCNCC3)nc21 [2,6,9-Trisubstituted Purine, 6] | 1010
CCn1cnc2c(Nc3ccc(P(=O)(O)CP(=O)(O)O)cc3)nc(C3CCNCC3)nc21 [2,6,9-Trisubstituted Purine, 4] | 665
CCn1cnc2c(Nc3ccc(P(=O)(O)CP(=O)(O)O)cc3)nc(CC3CCNCC3)nc21 [2,6,9-Trisubstituted Purine, 5] | 2310
CCn1cnc2c(Nc3ccc(P(=O)(O)CP(=O)(O)O)cc3)nc(C[C@H]3CC[C@H](N)CC3)nc21 [2,6,9-Trisubstituted Purine, 9] | 205

Reference: BindingDB's records for doi:10.1111/j.1747-0285.2007.00615.x (Ariad Pharmaceuticals, 2008)
